Assay results as given in US11168283B2, “Malodor counteracting ingredients” (Firmenich SA, priority 2017, dated 2021).

Target: T1, butyric acid olfactory receptor OR51E1 (Homo sapiens, UniProt Q8TCB6)
T1 construct: expressed in transfected cells
T1 sequence (Q8TCB6 1-318): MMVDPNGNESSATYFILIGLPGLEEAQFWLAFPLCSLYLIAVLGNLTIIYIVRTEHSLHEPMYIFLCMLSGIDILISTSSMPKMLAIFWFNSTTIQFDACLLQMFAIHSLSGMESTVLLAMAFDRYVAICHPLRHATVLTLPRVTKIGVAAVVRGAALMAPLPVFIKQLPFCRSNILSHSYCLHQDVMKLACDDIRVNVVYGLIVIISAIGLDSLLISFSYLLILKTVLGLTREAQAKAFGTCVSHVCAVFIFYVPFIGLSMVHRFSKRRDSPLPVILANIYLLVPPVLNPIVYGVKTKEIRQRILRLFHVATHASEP
Assay: Inhibitory dose-response assay in a cell line expressing the OR51E1 olfactory receptor, in the presence of butyric acid (EC87)
Type: cell-based
Conditions: maximum % inhibition of butyric acid (EC87) induced OR51E1 activity, normalized to baseline agonist activity

| Inhibition (%) | SMILES |
| --- | --- |
| 19 | CC(=NO)C1C(C)C(C)[C@@]23CC[C@H](CC12)C3 (some centres unmarked) [~{N}-[1[(1~{S},7~{R})-2,3-dimethyl-4-tricyclo[5.2.1.0^1,5]decanyl]ethylidene]hydroxylamine] |
| 38 | CC1CC(C)(C=NO)C2C[C@H]3CC[C@]12C3 (some centres unmarked) [~{N}-[[(1~{S},7~{R})-2,4-dimethyl-4-tricyclo[5.2.1.0^1,5]decanyl]methylidene]hydroxylamine] |
